Experimental data reported in PubChem BioAssay (NCI).
Values joined by “and” are separate entries in the source; they are usually repeats but may differ in a detail not shown here. Identical values can stand only once.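 Briefly, cells in 96-well plates were exposed to five compound concentrations for 48 h, and endpoints were estimated by linear interpolation. At the GI50, growth is halved. TGI marks complete inhibition of growth.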

Legend:
Assay in all cases: NCI anticancer screen, dose series, 48 h
[1] = system: 786-0 renal
[2] = system: A498 renal
[3] = system: A549 NSCLC
[4] = system: ACHN renal
[5] = system: BT-549 breast
[6] = system: CAKI-1 renal
[7] = system: CCRF-CEM leukemia
[8] = system: COLO 205 colon
[9] = system: DU-145 prostate
[10] = system: EKVX NSCLC
[11] = system: HCC-2998 colon
[12] = system: HCT-116 colon
[13] = system: HCT-15 colon
[14] = system: HL-60(TB) leukemia
[15] = system: HOP-62 NSCLC
[16] = system: HOP-92 NSCLC
[17] = system: HS 578T breast
[18] = system: HT29 colon
[19] = system: IGROV1 ovarian
[20] = system: K-562 leukemia
[21] = system: KM12 colon
[22] = system: LOX IMVI melanoma
[23] = system: M14 melanoma
[24] = system: MALME-3M melanoma
[25] = system: MCF7 breast
[26] = system: MDA-MB-435
[27] = system: MDA-MB-468 breast
[28] = system: MOLT-4 leukemia
[29] = system: NCI-H226 lung
[30] = system: NCI-H23 lung
[31] = system: NCI-H460 lung
[32] = system: NCI-H522 lung
[33] = system: NCI/ADR-RES ovarian
[34] = system: OVCAR-3 ovarian
[35] = system: OVCAR-4 ovarian
[36] = system: OVCAR-5 ovarian
[37] = system: OVCAR-8 ovarian
[38] = system: PC-3 prostate
[39] = system: RPMI-8226 leukemia
[40] = system: RXF 393 renal
[41] = system: SF-268 CNS
[42] = system: SF-295 CNS
[43] = system: SF-539 CNS
[44] = system: SK-MEL-28 melanoma
[45] = system: SK-MEL-5 melanoma
[46] = system: SK-OV-3 ovarian
[47] = system: SN12C renal
[48] = system: SNB-19 CNS
[49] = system: SR leukemia
[50] = system: SW-620 colon
[51] = system: T-47D breast
[52] = system: TK-10 renal
[53] = system: U251 CNS
[54] = system: UACC-257 melanoma
[55] = system: UACC-62 melanoma

`O=C(Nc1ccc(F)cc1)Nc1nc2ccc([N+](=O)[O-])cc2s1` gave a GI50 [1] of 3.07 µM, a TGI [1] of 11.5 µM and a GI50 [2] of 2.26 µM. For the same compound, the TGI [2] was 6.46 µM, the GI50 [3] was 2.75 µM and the TGI [3] was 11.6 µM. The GI50 [4] was 3.09 µM, the TGI [4] was 9.82 µM and the GI50 [5] was 1.95 µM. It also gave a TGI [5] of 5.03 µM, a GI50 [6] of 2.96 µM and a TGI [6] of 10.7 µM. For the same compound, the GI50 [7] was 2.61 µM, the TGI [7] was 10.5 µM and the GI50 [8] was 2.1 µM. It also gave a TGI [8] of 3.97 µM, a GI50 [9] of 3.94 µM and a TGI [9] of 14 µM. For the same compound, the GI50 [10] was 2.9 µM, the TGI [10] was 10.3 µM and the GI50 [11] was 3.56 µM. It also gave a TGI [11] of 12.5 µM, a GI50 [12] of 2.92 µM and a TGI [12] of 10.4 µM. It also gave a GI50 [13] of 2.73 µM, a TGI [13] of 10.2 µM and a GI50 [14] of 1.97 µM. The TGI [14] was 4.67 µM, the GI50 [15] was 3.19 µM and the TGI [15] was 11.8 µM. The GI50 [16] was 2.59 µM, the TGI [16] was 7.13 µM and the GI50 [17] was 2.6 µM. For the same compound, the TGI [17] was 8.28 µM, the GI50 [18] was 3.42 µM and the TGI [18] was 11 µM. It also gave a GI50 [19] of 3.93 µM, a TGI [19] of 14.5 µM and a GI50 [20] of 3.03 µM. It also gave a TGI [20] of 10.4 µM, a GI50 [21] of 3.05 µM and a TGI [21] of 10.5 µM. It also gave a GI50 [22] of 3.58 µM, a TGI [22] of 12.8 µM and a GI50 [23] of 2.7 µM. It also gave a TGI [23] of 10.7 µM, a GI50 [24] of 1.96 µM and a TGI [24] of 5.38 µM. For the same compound, the GI50 [25] was 2.51 µM, the TGI [25] was 8.65 µM and the GI50 [26] was 3.18 µM. The TGI [26] was 11.3 µM, the GI50 [27] was 2.36 µM and the TGI [27] was 6.75 µM. It also gave a GI50 [28] of 2.41 µM, a TGI [28] of 6.77 µM and a GI50 [29] of 3.34 µM. It also gave a TGI [29] of 11.7 µM, a GI50 [30] of 2.45 µM and a TGI [30] of 6.21 µM. For the same compound, the GI50 [31] was 2.89 µM, the TGI [31] was 9.77 µM and the GI50 [32] was 2.37 µM. It also gave a TGI [32] of 7.56 µM, a GI50 [33] of 2.85 µM and a TGI [33] of 9.36 µM. It also gave a GI50 [34] of 3.45 µM, a TGI [34] of 12.1 µM and a GI50 [35] of 3.3 µM. For the same compound, the TGI [35] was 13.2 µM, the GI50 [36] was 3.45 µM and the TGI [36] was 12.9 µM. It also gave a GI50 [37] of 3.42 µM, a TGI [37] of 11.9 µM and a GI50 [38] of 3.48 µM. The TGI [38] was 12.3 µM, the GI50 [39] was 1.92 µM and the TGI [39] was 5.04 µM. The GI50 [40] was 2.65 µM, the TGI [40] was 8.72 µM and the GI50 [41] was 2.78 µM. It also gave a TGI [41] of 11.3 µM, a GI50 [42] of 2.04 µM and a TGI [42] of 5.27 µM. The GI50 [43] was 2.59 µM, the TGI [43] was 6.91 µM and the GI50 [44] was 3 µM. It also gave a TGI [44] of 11 µM, a GI50 [45] of 1.73 µM and a TGI [45] of 3.3 µM. The GI50 [46] was 2.14 µM, the TGI [46] was 6.98 µM and the GI50 [47] was 2.59 µM. For the same compound, the TGI [47] was 8.12 µM, the GI50 [48] was 3.21 µM and the TGI [48] was 12.2 µM. The GI50 [49] was 1.86 µM, the TGI [49] was 5.02 µM and the GI50 [50] was 3.41 µM. It also gave a TGI [50] of 12.7 µM, a GI50 [51] of 2.58 µM and a TGI [51] of 7.68 µM. For the same compound, the GI50 [52] was 3.29 µM, the TGI [52] was 12 µM and the GI50 [53] was 3.3 µM. It also gave a TGI [53] of 11.3 µM, a GI50 [54] of 2.27 µM and a TGI [54] of 6.48 µM. The GI50 [55] was 2.62 µM and the TGI [55] was 9.22 µM.
With `COc1ccc(OCC(O)CN2CCN(c3ccc(Cl)cc3)CC2)cc1` (centres undefined) the GI50 [27] was 8.93 µM and the TGI [27] was over 100 µM.
`CC1(C)CC[C@]2(C(=O)O)CC[C@]3(C)C(=CC[C@@H]4[C@@]5(C)C/C(=C/c6ccco6)C(=O)C(C)(C)[C@@H]5CC[C@]43C)[C@@H]2C1` gave a GI50 [27] of 3.29 µM and a TGI [27] of 30.9 µM.
For `N/C(=N\C(N)=N\c1nc2ccccc2s1)c1cnccn1`, the GI50 [27] was 2.47 µM and the TGI [27] was 6.07 µM.
Work on `C#CC#CC#CC#CC#CC#CC#CC#CC[C@@H]1OC[C@@H](COC(=O)O[C@@H](C(=O)O[C@H]2C[C@@]3(O)[C@@H](OC(=O)c4ccccc4)[C@@H]4[C@]5(OC(C)=O)CO[C@@H]5C[C@H](O)[C@@]4(C)C(=O)[C@H](OC(C)=O)C(=C2C)C3(C)C)[C@@H](NC(=O)c2ccccc2)c2ccccc2)O1` yielded a GI50 [27] of 0.108 µM and a TGI [27] of 0.56 µM.
With `O=C(c1ccccc1)C(Br)C(Br)c1ccccc1` (centres undefined) the GI50 [27] was 2.07 µM and the TGI [27] was 4.65 µM.
`COc1ccc(-c2cc(-c3ccccc3)nc(NCCNc3ccnc4cc(Cl)ccc34)n2)cc1` showed a GI50 [27] of 0.3 µM and a TGI [27] of 1.21 µM.
For `CN(C)c1ccc(N=C2C=CC(=C(C#N)C#N)c3ccccc32)cc1`, the GI50 [27] was 0.393 µM and the TGI [27] was 2.35 µM.
`COc1ccc(/C(C)=C(\c2ccc(Cl)cc2)c2ccc(OCCN3CCCCCC3)cc2)cc1F` showed a GI50 [27] of 2.65 µM and a TGI [27] of 5.89 µM.
`CCSc1ncc(Br)c(Sc2nc(N)nc3nc[nH]c23)n1` gave a GI50 [27] of 1.72 µM and a TGI [27] of 7.81 µM.
`Nc1nc(=S)c2[nH]cnc2[nH]1` was tested, and the GI50 [27] was 0.15 µM and 1.04 µM and the TGI [27] was 1.23 µM and 8.93 µM.
With `Cc1cc(Nc2ccc(Cl)cc2)nc(NCCCNc2ccnc3cc(Cl)ccc23)n1` the GI50 [27] was 1.61 µM and the TGI [27] was 3.18 µM.
In the case of `COc1ccc(/C=C/C(C)=N/OCC(=O)Nc2ccc(Cl)cc2)cc1`, the GI50 [27] is reported as 2.52 µM and the TGI [27] is reported as 8.34 µM.
